Laboratory results published in ChEMBL document CHEMBL1201862, “PubChem BioAssay data set” (2004).
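These data come from cells grown in 96-well plates and exposed to compound for 48 hours at five concentrations. Abbreviation: GI50, concentration required for 50% inhibition of growth.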 Activity calls are given as the source filed them. Rule as the data show it: active = GI50 up to about 1.1 µM and inactive = higher.

Assays:
Assay in all cases: NCI tumour cell line growth inhibition, 48 h
[1] = test system: HL-60
[2] = test system: SK-MEL-28
[3] = test system: NCI-H522
[4] = test system: SF-539
[5] = test system: MDA-MB-435
[6] = test system: MCF7
[7] = test system: LOX IMVI
[8] = test system: HCC 2998
[9] = test system: SF-295
[10] = test system: BT-549
[11] = test system: A498
[12] = test system: RPMI-8226
[13] = test system: Hs-578T
[14] = test system: IGROV-1
[15] = test system: DU-145
[16] = test system: HT-29
[17] = test system: HCT-15
[18] = test system: HCT-116
[19] = test system: SK-MEL-5
[20] = test system: SK-OV-3
[21] = test system: SR
[22] = test system: NCI-H226
[23] = test system: OVCAR-8
[24] = test system: 786-0
[25] = test system: UO-31
[26] = test system: COLO 205
[27] = test system: ACHN
[28] = test system: OVCAR-3
[29] = test system: A549
[30] = test system: T47D
[31] = test system: PC-3
[32] = test system: NCI-H23
[33] = test system: MOLT-4
[34] = test system: EKVX
[35] = test system: Malme-3M
[36] = test system: NCI/ADR-RES
[37] = test system: NCI-H460
[38] = test system: HOP-62
[39] = test system: CCRF-CEM
[40] = test system: SNB-75
[41] = test system: UACC-62
[42] = test system: U-251
[43] = test system: M14
[44] = test system: CAKI-1
[45] = test system: HOP-92
[46] = test system: OVCAR-4
[47] = test system: UACC-257
[48] = test system: MDA-MB-231
[49] = test system: MDA-N
[50] = test system: TK-10
[51] = test system: KM12
[52] = test system: SN12C
[53] = test system: SK-MEL-2
[54] = test system: OVCAR-5
[55] = test system: SNB-19
[56] = test system: SW-620
[57] = test system: K562
[58] = test system: SF-268
[59] = test system: RXF 393

With `COc1ccc(S(=O)(=O)N2C(=O)CCC2C(=O)NN)cc1` (stereo unspecified) the GI50 [1] was > 100 µM (inactive), the GI50 [2] was > 100 µM (inactive) and the GI50 [3] was 25.5 µM (inactive). For the same molecule, the GI50 [4] was > 100 µM (inactive), the GI50 [5] was > 100 µM (inactive) and the GI50 [6] was > 100 µM (inactive). The GI50 [7] was > 100 µM (inactive), the GI50 [8] was > 100 µM (inactive) and the GI50 [9] was > 100 µM (inactive). The GI50 [10] was > 100 µM (inactive), the GI50 [11] was > 100 µM (inactive) and the GI50 [12] was > 100 µM (inactive). The GI50 [13] was 61.8 µM (inactive), the GI50 [14] was > 100 µM (inactive) and the GI50 [15] was > 100 µM (inactive). The GI50 [16] was > 100 µM (inactive), the GI50 [17] was over 100 µM and the GI50 [18] was > 100 µM (inactive). For the same molecule, the GI50 [19] was > 100 µM (inactive), the GI50 [20] was > 100 µM (inactive) and the GI50 [21] was > 100 µM (inactive). For the same molecule, the GI50 [22] was > 100 µM (inactive), the GI50 [23] was > 100 µM (inactive) and the GI50 [24] was > 100 µM (inactive). For the same molecule, the GI50 [25] was > 100 µM (inactive), the GI50 [26] was > 100 µM (inactive) and the GI50 [27] was > 100 µM (inactive). The GI50 [28] was > 100 µM (inactive), the GI50 [29] was > 100 µM (inactive) and the GI50 [30] was > 100 µM (inactive). For the same molecule, the GI50 [31] was > 100 µM (inactive), the GI50 [32] was > 100 µM (inactive) and the GI50 [33] was > 100 µM (inactive). For the same molecule, the GI50 [34] was > 100 µM (inactive), the GI50 [35] was > 100 µM (inactive) and the GI50 [36] was > 100 µM (inactive). The GI50 [37] was > 100 µM (inactive), the GI50 [38] was > 100 µM (inactive) and the GI50 [39] was > 100 µM (inactive). The GI50 [40] was > 100 µM (inactive), the GI50 [41] was > 100 µM (inactive) and the GI50 [42] was > 100 µM (inactive). The GI50 [43] was > 100 µM (inactive), the GI50 [44] was > 100 µM (inactive) and the GI50 [45] was > 100 µM (inactive). The GI50 [46] was > 100 µM (inactive), the GI50 [47] was > 100 µM (inactive) and the GI50 [48] was > 100 µM (inactive). The GI50 [49] was > 100 µM (inactive), the GI50 [50] was > 100 µM (inactive) and the GI50 [51] was > 100 µM (inactive). For the same molecule, the GI50 [52] was > 100 µM (inactive), the GI50 [53] was > 100 µM (inactive) and the GI50 [54] was > 100 µM (inactive). For the same molecule, the GI50 [55] was > 100 µM (inactive), the GI50 [56] was > 100 µM (inactive) and the GI50 [57] was > 100 µM (inactive).

With `Cc1nc2[nH]ccn2c(=O)c1CCO` the GI50 [1] was > 10 µM (inactive), the GI50 [2] was > 10 µM (inactive) and the GI50 [4] was > 10 µM (inactive). The GI50 [5] was > 10 µM (inactive), the GI50 [6] was > 10 µM (inactive) and the GI50 [7] was > 10 µM (inactive). The GI50 [9] was > 10 µM (inactive), the GI50 [10] was > 10 µM (inactive) and the GI50 [11] was > 10 µM (inactive). The GI50 [12] was > 10 µM (inactive), the GI50 [13] was > 10 µM (inactive) and the GI50 [14] was > 10 µM (inactive). For the same molecule, the GI50 [15] was > 10 µM (inactive), the GI50 [16] was > 10 µM (inactive) and the GI50 [17] was over 10 µM. The GI50 [18] was > 10 µM (inactive), the GI50 [58] was > 10 µM (inactive) and the GI50 [19] was > 10 µM (inactive). The GI50 [20] was > 10 µM (inactive), the GI50 [21] was > 10 µM (inactive) and the GI50 [22] was > 10 µM (inactive). For the same molecule, the GI50 [23] was > 10 µM (inactive), the GI50 [24] was > 10 µM (inactive) and the GI50 [25] was > 10 µM (inactive). For the same molecule, the GI50 [26] was > 10 µM (inactive), the GI50 [27] was > 10 µM (inactive) and the GI50 [28] was > 10 µM (inactive). The GI50 [29] was > 10 µM (inactive), the GI50 [30] was > 10 µM (inactive) and the GI50 [31] was > 10 µM (inactive). For the same molecule, the GI50 [32] was > 10 µM (inactive), the GI50 [33] was > 10 µM (inactive) and the GI50 [34] was > 10 µM (inactive). The GI50 [35] was > 10 µM (inactive), the GI50 [36] was > 10 µM (inactive) and the GI50 [37] was > 10 µM (inactive). The GI50 [38] was > 10 µM (inactive), the GI50 [39] was > 10 µM (inactive) and the GI50 [40] was > 10 µM (inactive). For the same molecule, the GI50 [41] was > 10 µM (inactive), the GI50 [42] was > 10 µM (inactive) and the GI50 [43] was > 10 µM (inactive). For the same molecule, the GI50 [44] was > 10 µM (inactive), the GI50 [45] was > 10 µM (inactive) and the GI50 [46] was > 10 µM (inactive). For the same molecule, the GI50 [47] was > 10 µM (inactive), the GI50 [48] was > 10 µM (inactive) and the GI50 [49] was > 10 µM (inactive). The GI50 [50] was > 10 µM (inactive), the GI50 [51] was > 10 µM (inactive) and the GI50 [52] was > 10 µM (inactive). For the same molecule, the GI50 [54] was > 10 µM (inactive), the GI50 [55] was > 10 µM (inactive) and the GI50 [56] was > 10 µM (inactive). For the same molecule, the GI50 [59] was > 10 µM (inactive) and the GI50 [57] was > 10 µM (inactive).

With `COc1ccc2c(c1)CCN1CCc3ccccc3CC21` (stereo unspecified) the GI50 [1] was 16.8 µM (inactive), the GI50 [2] was 27.6 µM (inactive) and the GI50 [3] was 67.3 µM (inactive). The GI50 [4] was 36.6 µM (inactive), the GI50 [5] was 26.8 µM (inactive) and the GI50 [6] was 60.8 µM (inactive). The GI50 [7] was 24 µM (inactive), the GI50 [8] was 21.2 µM (inactive) and the GI50 [9] was 19.2 µM (inactive). The GI50 [10] was 34 µM (inactive), the GI50 [11] was 30 µM (inactive) and the GI50 [12] was 19.1 µM (inactive). The GI50 [13] was 72.6 µM (inactive), the GI50 [14] was 56.5 µM (inactive) and the GI50 [15] was 65.2 µM (inactive). The GI50 [16] was 27.8 µM (inactive), the GI50 [17] was 48.2 µM and the GI50 [18] was 20.4 µM (inactive). The GI50 [58] was 24.8 µM (inactive), the GI50 [19] was 15.1 µM (inactive) and the GI50 [20] was 64.6 µM (inactive). For the same molecule, the GI50 [21] was 35.2 µM (inactive), the GI50 [22] was 29 µM (inactive) and the GI50 [23] was 63.5 µM (inactive). The GI50 [24] was 31.3 µM (inactive), the GI50 [25] was 11 µM (inactive) and the GI50 [26] was 19.4 µM (inactive). The GI50 [27] was 45 µM (inactive), the GI50 [28] was 72.4 µM (inactive) and the GI50 [29] was 49.7 µM (inactive). For the same molecule, the GI50 [30] was 43.7 µM (inactive), the GI50 [31] was 30 µM (inactive) and the GI50 [32] was 39 µM (inactive). For the same molecule, the GI50 [33] was 35 µM (inactive), the GI50 [34] was > 100 µM (inactive) and the GI50 [35] was 43.1 µM (inactive). For the same molecule, the GI50 [36] was 42.9 µM (inactive), the GI50 [37] was 30.8 µM (inactive) and the GI50 [38] was 72.8 µM (inactive). For the same molecule, the GI50 [39] was 33.3 µM (inactive), the GI50 [40] was 30.2 µM (inactive) and the GI50 [41] was 32.3 µM (inactive). For the same molecule, the GI50 [42] was 34.7 µM (inactive), the GI50 [43] was 18.2 µM (inactive) and the GI50 [44] was 47.2 µM (inactive). For the same molecule, the GI50 [45] was 20.5 µM (inactive), the GI50 [46] was > 100 µM (inactive) and the GI50 [47] was 29.7 µM (inactive). The GI50 [48] was 52.2 µM (inactive), the GI50 [49] was 27.4 µM (inactive) and the GI50 [50] was 35.7 µM (inactive). The GI50 [51] was 37.2 µM (inactive), the GI50 [52] was 73.5 µM (inactive) and the GI50 [53] was 57.3 µM (inactive). The GI50 [54] was 30.3 µM (inactive), the GI50 [55] was 32.9 µM (inactive) and the GI50 [56] was 45.3 µM (inactive). For the same molecule, the GI50 [57] was 29 µM (inactive).
